In patent US20240327882A1, “Methods and Compositions for Increasing Bio-products in Cyanobacteria using Low-Dose Antibiotics” (priority 2023, published 2024):
Values joined by “and” are separate entries in the source; they are usually repeats but may differ in a detail not shown here. Identical values can stand only once. “Also recorded” adds a separate entry of the source.

Assays:
[1] = system: F. diplosiphon strain B481-WT; test: lactate dehydrogenase (LDH) activity / membrane permeability, strain B481-WT; assay type: cell-based, Fremyella diplosiphon
Method: The assay quantitatively measures released extracellular LDH activity in culture media by enzymatic reaction.
(§1) F. diplosiphon strains, B481-WT obtained from the UTEX algae repository (Austin, TX, United States), and B481-SD (overexpressed strain with the sterol desaturase gene; accession MH329183) were used in this study. Cultures were grown in liquid BG-11/HEPES medium under wide-spectrum red light (650 nm) with continuous shaking at 170 rpm at 28° C. in an Innova 44R shaker (Eppendorf, Hamburg, Germany) for 6 days. Light fluorescence rate was adjusted to 30 μmol m^−2 s^−1 using the model LI-190SA quantum sensor (Li-Cor, United States). These conditions were kept constant during the study.
Three classes of antibiotics: β-lactams (ampicillin), aminoglycosides (kanamycin), and tetracycline, were tested in this study. Antibiotic stock solutions (25×-100×) were prepared according to the manufacturer's instructions and stored at −20° C. […] Each antibiotic concentration was mixed with 5 ml F. diplosiphon cells adjusted to OD750 nm and 200 μl of each dilution added. […]
The flasks were placed in an incubator at 37° C. in the dark for 24 h prior to lactate dehydrogenase (“LDH”) measurement. On day 6, 50 μl cultures were transferred to a 96 well clear polystyrene microplate (Corning, Inc., NY), and fluorescence Epi-RGB mode was used to macro-evaluation of antibiotic-treated both strains (Amersham Imager 680, GE Healthcare Bio-Sciences AB, Uppsala, Sweden). […] Absorbance was measured at 490 nm using a microplate reader (BioTek Synergy H1 Microplate Reader, Agilent, United States) after 2 h incubation in the dark at room temperature. The calculated average of the control included cells without antibiotics or nVZI treatment was accepted as healthy cells and results were determined by subtracting LDH activity of the control from treated cells. Microscopic observations of antibiotic-related membrane and cyanobacterial structure alterations were made using a Cytation 5 Cell Imaging Multi-Mode reader (BioTek® Instruments, Inc., Winooski, United States).

[2] = system: F. diplosiphon strain B481-SD; test: phycocyanin and chlorophyll α autofluorescence, strain B481-SD; assay type: cell-based, Fremyella diplosiphon; settings: for concentrations with significant increase in pigment (phycocyanin and chlorophyll α) autofluorescence / concentrations with significant decrease in pigment (phycocyanin and chlorophyll α) autofluorescence: vs untreated control
Method: as §1
(§2) Three classes of antibiotics: β-lactams (ampicillin), aminoglycosides (kanamycin), and tetracycline, were tested in this study. Antibiotic stock solutions (25×-100×) were prepared according to the manufacturer's instructions and stored at −20° C. […] Each antibiotic concentration was mixed with 5 ml F. diplosiphon cells adjusted to OD750 nm and 200 μl of each dilution added.
(§3) Cells grown in the absence of antibiotics or nZVIs served as control. In order to minimize the effects of light scattering, every other well was left blank. Plates were sealed with a Breathe-Easy sealing membrane (Sigma-Aldrich, MO, Lot #MKCP8263) to prevent evaporative water loss and decrease the risk of contamination.
(§4) Phycocyanin and chlorophyll α fluorescence in antibiotic-treated and control F. diplosiphon B481-WT and B481-SD were recorded every other day (48 hour intervals) using a microplate reader (BioTek Synergy H1 Microplate Reader, Agilent, USA). While chlorophyll α fluorescence was recorded at an excitation of 420 nm and emission of 680 nm, phycocyanin was measured at excitations of 590 nm, and emissions of 650 nm, see FIGS. 5-20. Maximum PSII quantum yield (Fv/Fo) of treated and controlled F. diplosiphon strains was likewise measured using MINI-PAM (Walz, Effeltrich, Germany) every 48 h for 6 days after incubating in dark for 15 min. The (Fv/Fo) was calculated using the equation

[3] = system: F. diplosiphon strain B481-WT; test: phycocyanin and chlorophyll α autofluorescence, strain B481-WT; assay type: cell-based, Fremyella diplosiphon; settings: for concentrations with significant decrease in pigment (phycocyanin and chlorophyll α) autofluorescence / concentrations with enhanced pigment accumulation: vs untreated control
Method: as §1, §2, §3, §4

[4] = system: F. diplosiphon strain B481-SD; test: maximum PSII quantum yield (Fv/Fo), strain B481-SD; assay type: cell-based, Fremyella diplosiphon
Method: as §4

[5] = system: F. diplosiphon strain B481-WT; assay type: cell-based, Fremyella diplosiphon
Method: (§5) The flasks were placed in an incubator at 37° C. in the dark for 24 h prior to lactate dehydrogenase (“LDH”) measurement. On day 6, 50 μl cultures were transferred to a 96 well clear polystyrene microplate (Corning, Inc., NY), and fluorescence Epi-RGB mode was used to macro-evaluation of antibiotic-treated both strains (Amersham Imager 680, GE Healthcare Bio-Sciences AB, Uppsala, Sweden). Next, 50 μL of the reaction mixture (LDH Cytotoxicity Assay Kit, Thermo Fisher Scientific, United States) was added. After incubation for 30 min. at room temperature in the dark, 50 μL of stock solution was added and mixed gently (Wejnerowski et al., 2018). Absorbance was measured at 490 nm using a microplate reader (BioTek Synergy H1 Microplate Reader, Agilent, United States) after 2 h incubation in the dark at room temperature. The calculated average of the control included cells without antibiotics or nVZI treatment was accepted as healthy cells and results were determined by subtracting LDH activity of the control from treated cells. Microscopic observations of antibiotic-related membrane and cyanobacterial structure alterations were made using a Cytation 5 Cell Imaging Multi-Mode reader (BioTek® Instruments, Inc., Winooski, United States).

[6] = system: F. diplosiphon B481-SD cultures; test: total lipid content by gravimetry; assay type: cell-based, Fremyella diplosiphon; settings: 0.8 mg/L; not statistically different (p>0.05)
Method: (§6) Total lipids were extracted and GC×GC/TOF-MS analysis of transesterified lipids in F. diplosiphon treated with optimal ampicillin were performed. B481-SD cultures were grown under optimal conditions and harvested on day 15. Total lipids were extracted using the chloroform: methanol method described by Folch et al. (1957). Briefly, cultures were pelleted and lyophilized, and 15 mL methanol/chloroform (2:1, v/v) solvent was added to 100 mg dry weight of cells. The mixture was homogenized, incubated on ice, and centrifuged at 3000 rpm for 10 min to collect the organic phase. The biomass residue was re-extracted thrice with 4 mL of methanol and 2 mL of chloroform. The lower organic phase was dried in a rotary evaporator (Heidolph, IL, USA), and the total lipid content was estimated by gravimetry.

[7] = system: F. diplosiphon B481-SD cultures; test: GC×GC/TOF-MS analysis of transesterified lipids (FAMEs); assay type: cell-based, Fremyella diplosiphon; settings: 0.8 mg/L
Method: as §6
Simultaneous extraction and transesterification of F. diplosiphon lipids were performed according to the method described by Wahlen et al. (2011). […] The reaction was quenched with 4 ml chloroform, washed in distilled water, and centrifuged at 2000 rpm for phase separation. The chloroform phase containing FAMEs and lipids was transferred to a new flask, and the remaining biomass was washed twice with 2 mL chloroform and mixed. The extracted FAMEs were subjected to high-resolution two-dimensional gas chromatography-time of flight mass spectrometry (GC×GC/TOF-MS) as described by Tabatabai et al. (2018).

[8] = system: F. diplosiphon strain B481-WT; test: maximum PSII quantum yield (Fv/Fo), strain B481-WT; assay type: cell-based, Fremyella diplosiphon
Method: as §4

Microcystis aeruginosa = settings: cited from earlier work
[9] = system: F. diplosiphon strain B481-SD; test: lactate dehydrogenase (LDH) activity / membrane permeability, strain B481-SD; assay type: cell-based, Fremyella diplosiphon
[10] = system: F. diplosiphon strain B481-SD; assay type: cell-based, Fremyella diplosiphon
Method: as §5

F. diplosiphon = settings: day 6; strain not stated

Compound | concentration of maximum LDH activity [1] [mg/L] | concentrations with significant increase in pigment (phycocyanin and chlorophyll α) autofluorescence [2] | concentrations with significant decrease in pigment (phycocyanin and chlorophyll α) autofluorescence [3] [mg/L] | concentration above which filament fragmentation and alteration of cell shape were observed [5] | concentrations with significant decrease in pigment (phycocyanin and chlorophyll α) autofluorescence [2] [mg/L] | concentration of maximum LDH activity [9] [mg/L] | concentrations with enhanced pigment accumulation [3] [mg/L] | concentration of maximal LDH activity (membrane permeability) (F. diplosiphon) [mg/L] | further results
CC1(C)S[C@@H]2[C@H](NC(=O)[C@H](N)c3ccccc3)C(=O)N2[C@H]1C(=O)O [ampicillin] | 0.4 | 0.2 to 25.6 mg/L and 0.2 to 51.2 mg/L | 3.2 to 102.5 | higher than 25.6 mg/L |  |  |  |  | concentrations with significant increase in Fv/Fo ([4]; day 4, vs control): 0.2 to 3.2 mg/L; total lipid content compared to the control [6]: slight increase; monounsaturated fatty acids compared to the control [7]: Enhanced amounts; polyunsaturated fatty acids compared to the control [7]: Enhanced amounts; saturated fatty acids (SFAs) compared to the control [7]: augmentation; also recorded: Enhanced amounts; methyl ester of hexadecanoic acid (C16: 0) level vs untreated control ([7]; p<0.05): significantly higher; methyl octadecadienoate (C18: 2) level vs untreated control ([7]; p<0.05): significantly higher; methyloctadecenoate (C18: 1) level vs untreated control ([7]; p<0.05): significantly higher; ç-Linolenic acid (C18: 3) level vs untreated control ([7]; p<0.05): significantly higher
CO/N=C(\C(=O)N[C@@H]1C(=O)N2C(C(=O)O)=C(COC(C)=O)CS[C@H]12)c1csc(N)n1 [cefotaxime] |  |  |  |  | 0.8 to 102.5 |  |  |  | concentration above which there is no recovery of Fv/Fo [4]: higher than 1.6 mg/L; concentration above which there is no recovery of Fv/Fo [8]: > 0.05 mg/L
CC[C@H]1OC(=O)[C@H](C)[C@@H](O[C@H]2C[C@@](C)(OC)[C@@H](O)[C@H](C)O2)[C@H](C)[C@@H](O[C@@H]2O[C@H](C)C[C@H](N(C)C)[C@H]2O)[C@](C)(O)C[C@@H](C)C(=O)[C@H](C)[C@@H](O)[C@]1(C)O [erythromycin] |  |  |  |  |  |  |  |  | low dosages reported to trigger photosynthetic activity (Microcystis aeruginosa): < 20 mg/L
NC[C@H]1O[C@H](O[C@H]2[C@H](O)[C@@H](O[C@H]3O[C@H](CO)[C@@H](O)[C@H](N)[C@H]3O)[C@H](N)C[C@@H]2N)[C@H](O)[C@@H](O)[C@@H]1O [kanamycin] | 0.4 | 0.2 to 3.2 mg/L | 6.4 to 102.5 | > 51.2 µg/mL | 6.4 to 102.5 | 0.8 | 0.2 to 3.2 | 0.8 | concentrations with decrease in Fv/Fo ratio ([8]; exposure for 6 days): 1.6 to 102.5 mg/L; concentrations with significant increase in Fv/Fo ([8]; vs control group): 0.2 to 1.6 mg/L; concentration above which filament fragmentation and alteration of cell shape were observed [10]: > 51.2 µg/mL
CN(C)[C@@H]1C(O)=C(C(N)=O)C(=O)[C@@]2(O)C(O)=C3C(=O)c4c(O)cccc4[C@@](C)(O)[C@H]3C[C@@H]12 [tetracycline] | 0.4 | 0.8 to 12.8 mg/L | 25.6 to 410 |  | 102.5 to 410 | 0.8 | 0.8 to 12.8 | 0.8 | concentrations with significant increase in pigment autofluorescence ([2]; day 6): 0.8 to 12.8 mg/L; concentrations with significant increase in pigment autofluorescence ([3]; day 6): 0.8 to 12.8 mg/L; concentrations with decrease in Fv/Fo ratio ([4]; exposure for 6 days): higher than 102.5 mg/L
